Reference: US20140127235A1, “TARGETING HK alpha FOR CONTROLLING BLOOD PRESSURE AND REGULATING ELECTROLYTE BALANCE” (UNIVERSITY OF FLORIDA RESEARCH FOUNDATION, INC., priority 2011, published 2014)

Key:
Type in all cases: in vivo, mouse
H^+,K^+-ATPase = assay: H+,K+-ATPase-mediated H+ secretion (JH) in intercalated cells of microperfused inner cortical collecting ducts from DOCP-treated mice (BCECF-AM)
Method: One likely mechanism for mineralocorticoid-induced changes in acid-base homeostasis was stimulation of renal H^+,K^+-ATPase activity in response to mineralocorticoid-induced K^+ deficits. Therefore, H^+,K^+-ATPase activity was assessed in inner cortical collecting ducts from control and DOCP-treated mice. Individual intercalated cells from microperfused collecting ducts were loaded with the pH sensitive fluorescent dye, BCECF-AM. The addition of inhibitors of the Na^+/H^+ exchanger and the H^+-ATPase allowed for the measurement of H^+,K^+-ATPase-mediated H^+ secretion (JH) in response to an acute intracellular acid load (NH4Cl). The overall rate of H^+,K^+-ATPase-mediated JH in intercalated cells from control mice was quite slow (˜15H^+/min) (FIG. 1).
Additional experiments were conducted to identify which intercalated cell subtype was responsible for the DOCP-induced increase in H^+,K^+-ATPase mediated JH. Again, the rate of H^+,K^+-ATPase-mediated JH was measured in intercalated cells of inner cortical collecting ducts from control and DOCP-treated mice. At the end of the experiment, A- and B-type ICs were differentiated by peritubular Cl^− removal and return as has been described previously^12,13 The characteristic inverse responses of A- and B-type intercalated cells to Cl^− removal and return were observed (Table 2). […]
Inner cortical collecting ducts were hand dissected at 4° C., transferred to a mounting chamber and perfused as described previously.^25 The ratiometric, pH sensitive dye, BCECF-AM (15 μM, Invitrogen) was added to the luminal perfusate for 10 minutes and fluorescence measurements were performed after dye de-esterification. […] Recovery rates were calculated from the linear portion of the pH, recovery phase starting with the lowest pH, achieved. The intrinsic buffering capacity was calculated from the formula βi=ΔHi/ΔpHi where ΔHi is the change in the calculated [NH4]i and ΔpHi the change in pHi during the acid loaded phase. Acid secretion rates (JH) were calculated from the formula JH=βi*ΔpH, (U/min) and expressed as [H^+]/min. […]

[1] = Effect of high K+ (5%) diet on physiological response of wild type mice to DOCP treatment; settings: eight days after DOCP
Method: Deficits in K^+ homeostasis have long been known to stimulate H^+,K^+-ATPase activity and HKα subunit expression. […] For this experiment, mice were fed a high K^+ diet and then left untreated (control) or given DOCP treatment. Body weight and blood electrolytes were measured eight days after treatment and kidneys were collected for analysis of HKα, and HKα2 mRNA expression by real time PCR.
Mice were fed normal lab chow, given free access to water, and given an i.m. injection of 1.7 mg DOCP (Percorten V, Novartis Pharmaceuticals). For perfusion and expression studies, mice were sacrificed with Na^+ pentobarbital (i.p. 120 mg/kg) followed by cervical dislocation. For time course experiments, another group of animals were anesthetized with 3-4% isoflurane and aortic blood was collected into a heparinized syringe for immediate analysis of electrolytes and blood gases (Nova pHOx Plus analyzer, Nova Biomedical). For high K^+ diet studies, mice were given a normal, powdered diet (TD99131, Teklad) supplemented with KCl to equal 5% K^+ which was then made as a gel. Half of the mice were treated with DOCP. Blood and tissues were collected as in the time course experiments. For urinalysis experiments, mice were housed in metabolic cages for thirteen days and fed a normal gel diet with free access to a water bottle. On day five, mice were treated with DOCP as above. Urine and feces were collected daily. Urine electrolytes were measured on a clinical analyzer (Nova 16 analyzer, Nova Biomedical) and fecal electrolytes were measured on a digital flame photometer (Model 2655-00, Cole-Parmer).

[2] = Radiotelemetry (blood pressure, heart rate, locomotor activity) in WT and HKα1,2−/− mice, control and DOCP; settings: for Mean arterial pressures / Heart rate / Locomotor activity: DOCP
Description: Age matched, male C56BL/6 WT and C56BL/6 HKα1,2^−/− mice were anesthetized using 5% isoflurane, and radiotelemetry transmitters (PA-C10, Data Sciences, St. Paul, Minn.) were implanted under sterile conditions (1-3% continuous isoflurane). The catheter was placed in the left carotid artery and the housing of the transmitter was implanted subcutaneously on the animal's right flank. Mice were allowed to recover for a period of at least 14 days prior to recordings. These mice were not subject to metabolic cage experiments or blood and tissue collections. Mice were fed a normal lab chow (Teklad 2018, 0.2% Na and 0.5% K) and allowed free access to water. DOCP treated mice received an intramuscular injection of 1.7 mg DOCP (Percorten V, Novartis Pharmaceuticals) and were fed the normal gel diet described previously supplemented with NaCl to equal 0.4% Na^+ ad libitum for 8 days with free access to water. Radiotelemetry recordings were performed one week before and one week after DOCP treatment. At the time of the control recording, mice ranged in age from 15-25 weeks. Recording were made for 2 minutes at the beginning of each hour or for 2 minutes every 10 minutes for 48 hours. Moving averages were calculated for each hour. Comparisons of systolic BP, HR, and LA were made for the main effects 1) DOCP treated versus untreated and 2) WT versus HKα1,2^−/− mice. Differences between the daytime (06:00-17:59) and nighttime (18:00-05:59) values for these parameters were also compared.
Radiotelemetry was performed in order to assess genotypic differences in systolic BP, HR and LM during normal and DOCP treatment. Example 48 hr tracings of systolic BP, HR, and LA comparing WT and HKα1,2^−/− during normal and DOCP treatment are shown in FIG. 13.

Question: Which “increase in H+,K+-ATPase-mediated JH” value (H^+,K^+-ATPase; A-type intercalated cells, DOCP-treated versus control mice) does the source give for CC(C)(C)C(=O)OCC(=O)[C@H]1CC[C@H]2[C@@H]3CCC4=CC(=O)CC[C@]4(C)[C@H]3CC[C@]12C [DOCP, desoxycorticosterone pivalate] here?
Answer: The value was “approximately 60%”.

Question: What about the “rate of H+,K+-ATPase-mediated JH” value (H^+,K^+-ATPase; B type ICs, DOCP-treated versus control mice) of the same molecule?
Answer: The value was “not affected”.

Question: And the “increase in H+,K+-ATPase-mediated JH” value (H^+,K^+-ATPase; intercalated cells from DOCP-treated mice (eight days) versus control)?
Answer: Its value is “greater than 60%”.

Question: What about the “Blood [Cl−]” value [1] of the same molecule?
Answer: The value was 121 ± 1.30 mM.

Question: And the “Blood [HCO3−]” value [1]?
Answer: Its value is 18.2 ± 1.01 mM.

Question: What about the “Blood [K+]” value [1] of the same molecule?
Answer: Its value is 4.30 ± 0.18 mM.

Question: And the “Blood [Na+]” value [1]?
Answer: The value was 151 ± 0.88 mM.

Question: And the Body weight change [1]?
Answer: The Body weight change was -0.17 ± 0.27 g.

Question: What about the “effect on daytime or nighttime systolic BP” value ([2]; HKα1,2−/− mice) of the same molecule?
Answer: Its value is “failed to significantly increase”.

Question: What about the Mean arterial pressures ([2]; HKα1,2−/− mice, Daytime (Inactive)) of the same molecule?
Answer: Its Mean arterial pressures is 112.7 ± 1.8 mmHg.

Question: And the Heart rate ([2]; HKα1,2−/− mice, Daytime)?
Answer: Its Heart rate is 554.8 ± 21.4 beats/min.

Question: What about the Locomotor activity ([2]; HKα1,2−/− mice, Daytime) of the same molecule?
Answer: Its Locomotor activity is 3.267 ± 0.603.

Question: What about the Mean arterial pressures ([2]; HKα1,2−/− mice, Nighttime (Active)) of the same molecule?
Answer: Its Mean arterial pressures is 118.5 ± 2.4 mmHg.

Question: And the Heart rate ([2]; HKα1,2−/− mice, Nighttime)?
Answer: Its Heart rate is 580.5 ± 20.1 beats/min.

Question: And the Locomotor activity ([2]; HKα1,2−/− mice, Nighttime)?
Answer: Its Locomotor activity is 5.410 ± 1.078.

Question: What about the “effect on locomotor activity (LA)” value ([2]; WT and HKα1,2−/− mice) of the same molecule?
Answer: Its value is “did not significantly affect”.

Question: And the “effect on systolic BP during the day and night” value ([2]; WT mice)?
Answer: The value was “significantly increased”.

Question: And the “effect on HR during the night” value ([2]; WT mice, DOCP treatment)?
Answer: Its value is “significant decrease”.

Question: What about the Mean arterial pressures ([2]; WT mice, Daytime (Inactive)) of the same molecule?
Answer: The Mean arterial pressures was 112.9 ± 2.3 mmHg.

Question: And the Heart rate ([2]; WT mice, Daytime)?
Answer: Its Heart rate is 496.7 ± 17.5 beats/min.

Question: And the Locomotor activity ([2]; WT mice, Daytime)?
Answer: The Locomotor activity was 3.913 ± 0.407.

Question: And the Mean arterial pressures ([2]; WT mice, Nighttime (Active))?
Answer: The Mean arterial pressures was 122.5 ± 2.9 mmHg.

Question: What about the Heart rate ([2]; WT mice, Nighttime) of the same molecule?
Answer: Its Heart rate is 533.5 ± 17.2 beats/min.

Question: And the Locomotor activity ([2]; WT mice, Nighttime)?
Answer: The Locomotor activity was 7.036 ± 0.735.
